Data from the NIST ThermoML archive (doi:10.1021/je9000679).
Numbers after ± are expanded uncertainties.

Settings: for surface tension liquid-gas: Maximal bubble pressure; for mass density: 101.33 kPa, Liquid

CCCCCC[n+]1ccccc1.[O]=[Re](=[O])(=[O])[O-] [1-hexylpyridinium perrhenate]
Settings	mass density [kg/m3]	surface tension liquid-gas [mN/m]
293.15 K	1794.6 ± 2.6	34.4 ± 0.5
298.15 K	1787 ± 2.6	34 ± 0.5
303.15 K	1779 ± 2.6	33.6 ± 0.4
308.15 K	1771.3 ± 2.5	33.2 ± 0.4
313.15 K	1765 ± 2.5	33 ± 0.4
318.15 K	1759 ± 2.5	32.6 ± 0.4
323.15 K	1751.4 ± 2.5	32.3 ± 0.4
328.15 K	1743.9 ± 2.5	32 ± 0.4
333.15 K	1738 ± 2.4	31.8 ± 0.4
338.15 K	1732.3 ± 2.4	31.5 ± 0.4
343.15 K	1726.9 ± 2.4	31.1 ± 0.4
